Reference: US12012415B2, “Compositions and methods for the diagnosis, treatment and prevention of neoplastic and neurological disorders” (AscentGene, Inc., priority 2018, dated 2024)

How the values were obtained:
[1] = test system: hippocampal synaptic plasticity in the CA1 region; assay: In vivo electrophysiology, hippocampal CA1 LTP and DEP, Aβ1-42 AD rat model; parameters: species or system rats; settings: last 20 min, vs Aβ1-42 group
Method: Aβ1-42 (Sigma-Aldrich, St. Louis, MO, USA;) was dissolved in double-distilled water at the concentration of 5 μg/μl, and incubated at 37° C. for one week before surgery. The rats were randomly divided into four groups as Sham (n=8), Sham+AG-1601 (n=8), Aβ1-42 (n=8) and Aβ1-42+AG-1601 (n=8). The Alzheimer's disease rat models were established by intracerebroventricular (i.c.v.) injection of Aβ1-42 aggregates. The animals were anesthetized with intraperitoneal injection of pentobarbital sodium (50 mg/kg) and placed in a stereotaxic apparatus (Narishige, Japan). The head skin of the rat was opened and two small holes were drilled on both sides of skull following the coordinates: 0.8 mm posterior to bregma, +1.4 mm lateral to sagittal suture, 4.0 mm beneath the surface of brain. Aβ1-42 (2.0 μl per side) was injected bilaterally into the lateral ventricles through micro-syringe. The needle was taken out after 5 minutes of the injection to ensure the aggregates were infused completely. Rats in the Sham group underwent the same operational process, but same volumes of double-distilled water were injected instead of Aβ1-42. After surgery, all rats were injected with penicillin (100,000 U) in the hindquarter muscle to prevent infection. The animals of Sham+AG-1601 and Aβ1-42+AG-1601 groups were intravenous injection with AG-1601 (1 mg/kg), while the same volume vehicle was implemented for the other groups every day for 14 days after one week of the postoperative recovery. The rats were placed in the stereotaxic apparatus after intraperitoneal injection of 30% urethane (0.4 g/kg Sigma-Aldrich, St. Louis, MO, USA). According to our former protocols (Gao et al., 2015) the appropriate incision on the scalp was cut to expose the skull and a small hole was drilled. […] The depth of both electrodes was optimized to acquire the proper amplitude of evoked potentials. […] A test stimulus was given every 30 s to record for 20 min as baseline. Then LTP was induced by TBS (30 trains of 12 pulses at 200 Hz) and recorded every 60s for 60 min. […]

PC4 protein = PC4 protein (Homo sapiens, UniProt P53999); assay: PC4-DNA binding interference; settings: high-throughput screen platform
Method: A number of small molecules were incubated with PC4 protein and DNA binding assessed.

U87 cells = assay: Cell viability, combination with TMZ in U87 cells; format: cell-based, human
Method: Human glioma cell lines of U251, SF539, SF295 were obtained from NCI/DTP and U87 was obtained from ATCC. U251, SF539, and SF295 cells were grown in RPMI (Gibco) medium; U87 cells were grown in EMEM medium (ATCC), all the cells culture media containing 10% FBS and 100 unit/ml of Penicillin-Streptomycin, and cells were incubated in a 37 °C/5% CO2 humidified hood. One day before chemical compounds treatment, four kinds of cells U251, SF539, SF295, and U87 were seeded in 96-well plates at 10,000 cells/well (100 μl) with triplicate. The culture medium was removed and cells were treated with a series different concentration of AG1601/in correspond fresh media. Following an additional incubation of 48 hours at 37° C./5% CO2, cells proliferation assay was performed with Cell Counting Kit-8 (Dojindo Laboratories, #CK04), added 10 μl of reagent to the cells in each well after replacing with 100 μl of fresh media, mix well, following an additional 2 to 3 hours incubation at 37° C./5% CO2, read wavelengths of OD450 nm in a 96-well plate reader (Victor 2, 1420 Multilabel counter), data analysis were performed with Excel and it is platted as relative mean OD450 nm+/−standard error of the mean.
Cells were treated with indicated content of AG-1601 for 48 hours, then followed by performance of cell viability assays. […]

C=CC1=C(C)c2cc3[nH]c(cc4nc(cc5[nH]c(cc1n2)c(C)c5C=C)C(C)=C4CCC(=O)O)c(CCC(=O)NCCCc1ccccc1)c3C [AG-1601, 3-(2,8,13,18-tetramethyl-3-(3-oxo-3-((3-phenylpropyl)amino)propyl)-12,17-divinylporphyrin-7-yl)propanoic acid]
fEPSP slopes of DEP [1]: reversed effectively | fEPSP slopes of LTP [1]: significantly recovered | fEPSP slopes of LTP ([1]; listed as AG-1061): augmented significantly | PC4 inhibition (PC4 protein): strong PC4 inhibitor | potentiation of the effect of TMZ (U87 cells): potentiates the effect of TMZ
